Results from ChEMBL document CHEMBL4831556, “Discovery of a Novel Potent and Selective Calcium Release-Activated Calcium Channel Inhibitor: 2,6-Difluoro-N-(2'-methyl-3'-(4-methyl-5-oxo-4,5-dihydro-1,3,4-oxadiazol-2-yl)-[1,1'-biphenyl]-4-yl)benzamide. Structure-Activity Relationship and Preclinical Characterization” (J Med Chem, 2021).

Tests used:
Cytochrome P450 2D6 = Cytochrome P450 2D6 (Homo sapiens, UniProt P10635); assay: Inhibition of CYP2D6 in human liver microsomes at 10 uM by LC-MS/MS analysis; type: ADME
Cytochrome P450 2D6, sequence (P10635 whole entry): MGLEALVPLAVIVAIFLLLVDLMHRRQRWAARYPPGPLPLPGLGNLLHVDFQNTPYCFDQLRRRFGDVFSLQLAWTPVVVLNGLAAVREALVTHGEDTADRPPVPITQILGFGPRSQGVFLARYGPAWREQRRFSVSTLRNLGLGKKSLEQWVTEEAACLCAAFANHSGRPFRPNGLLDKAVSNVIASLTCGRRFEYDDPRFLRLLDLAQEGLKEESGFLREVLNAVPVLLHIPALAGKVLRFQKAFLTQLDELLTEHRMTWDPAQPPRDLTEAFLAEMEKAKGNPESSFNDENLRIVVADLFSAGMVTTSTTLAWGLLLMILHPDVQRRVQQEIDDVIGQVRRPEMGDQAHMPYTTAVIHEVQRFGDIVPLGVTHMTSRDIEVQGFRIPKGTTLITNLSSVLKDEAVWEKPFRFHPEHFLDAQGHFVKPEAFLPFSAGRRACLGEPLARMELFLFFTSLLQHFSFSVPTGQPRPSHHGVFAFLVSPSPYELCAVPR

[1] = Half life in Lewis rat at 1 mg/kg, iv measured upto 24 hrs by LC-MS/MS analysis; type: ADME, organism-based; conditions: in vivo
[2] = Half life in BALB/c mouse at 1 mg/kg, iv measured upto 24 hrs by LC-MS/MS analysis; type: ADME, organism-based; conditions: in vivo
[3] = Metabolic stability in rat liver microsomes preincubated for 5 mins followed by NADPH addition and measured upto 30 mins by LC-MS/MS analysis; type: ADME, Microsome; conditions: 0.5 h, time <=35 min
Cytochrome P450 1A2 = target: T1, Cytochrome P450 1A2 (Homo sapiens, UniProt P05177); assay: Inhibition of CYP1A2 in human liver microsomes at 10 uM by LC-MS/MS analysis; type: ADME
T1 sequence (P05177 whole entry): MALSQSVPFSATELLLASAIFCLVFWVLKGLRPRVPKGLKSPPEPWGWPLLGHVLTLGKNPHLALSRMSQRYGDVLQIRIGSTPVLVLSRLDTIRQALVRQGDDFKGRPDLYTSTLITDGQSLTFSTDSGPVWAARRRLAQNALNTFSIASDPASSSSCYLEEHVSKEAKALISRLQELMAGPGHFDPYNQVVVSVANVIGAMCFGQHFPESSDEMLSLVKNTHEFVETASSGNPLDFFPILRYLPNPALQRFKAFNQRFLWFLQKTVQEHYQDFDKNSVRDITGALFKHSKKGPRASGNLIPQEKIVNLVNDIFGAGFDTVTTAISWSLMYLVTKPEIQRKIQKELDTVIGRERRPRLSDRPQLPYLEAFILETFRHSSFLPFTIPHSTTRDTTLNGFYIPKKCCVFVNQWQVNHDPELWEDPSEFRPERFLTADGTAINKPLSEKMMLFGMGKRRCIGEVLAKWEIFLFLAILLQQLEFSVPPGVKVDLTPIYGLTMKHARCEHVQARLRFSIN

Cytochrome P450 2C9 = Cytochrome P450 2C9 (Homo sapiens, UniProt P11712); assay: Inhibition of CYP2C9 in human liver microsomes at 10 uM by LC-MS/MS analysis; type: ADME
Cytochrome P450 2C9, sequence (P11712 whole entry): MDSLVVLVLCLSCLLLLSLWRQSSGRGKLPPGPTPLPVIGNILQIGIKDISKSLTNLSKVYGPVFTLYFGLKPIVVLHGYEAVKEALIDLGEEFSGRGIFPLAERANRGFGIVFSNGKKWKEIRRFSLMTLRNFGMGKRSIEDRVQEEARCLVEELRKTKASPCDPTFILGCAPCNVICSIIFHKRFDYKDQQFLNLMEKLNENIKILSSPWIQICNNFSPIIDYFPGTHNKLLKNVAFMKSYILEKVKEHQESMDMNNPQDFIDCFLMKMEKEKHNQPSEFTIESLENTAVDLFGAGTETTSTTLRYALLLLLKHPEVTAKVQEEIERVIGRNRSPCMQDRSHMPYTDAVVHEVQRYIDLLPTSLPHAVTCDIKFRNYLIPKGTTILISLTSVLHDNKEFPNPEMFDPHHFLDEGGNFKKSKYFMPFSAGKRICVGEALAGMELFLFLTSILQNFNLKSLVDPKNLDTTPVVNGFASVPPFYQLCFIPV

[4] = AUClast in Lewis rat at 10 mg/kg, po measured upto 24 hrs by LC-MS/MS analysis; type: ADME, organism-based; parameters: route oral, dose 10 mg/kg, time <=24; conditions: in vivo
[5] = Tmax in BALB/c mouse at 10 mg/kg, po measured upto 24 hrs by LC-MS/MS analysis; type: ADME, organism-based; conditions: in vivo
[6] = Oral bioavailability in Lewis rat at 10 mg/kg measured upto 24 hrs by LC-MS/MS analysis; type: ADME, organism-based; conditions: in vivo
[7] = Cmax in Lewis rat at 1 mg/kg, iv measured upto 24 hrs by LC-MS/MS analysis; type: ADME, organism-based; parameters: route intravenous, dose 1 mg/kg, time <=24; conditions: in vivo
[8] = Half life in BALB/c mouse at 10 mg/kg, po measured upto 24 hrs by LC-MS/MS analysis; type: ADME, organism-based; conditions: in vivo
[9] = Metabolic stability in mouse liver microsomes preincubated for 5 mins followed by NADPH addition and measured upto 30 mins by LC-MS/MS analysis; type: ADME, Microsome; conditions: 0.5 h, time <=35 min
[10] = Plasma protein binding; type: ADME, cell-free; conditions: read-out: PPB
[11] = Metabolic stability in human liver microsomes preincubated for 5 mins followed by NADPH addition and measured upto 30 mins by LC-MS/MS analysis; type: ADME, Microsome; conditions: 0.5 h, time <=35 min
[12] = Cmax in Lewis rat at 10 mg/kg, po measured upto 24 hrs by LC-MS/MS analysis; type: ADME, organism-based; parameters: route oral, dose 10 mg/kg, time <=24; conditions: in vivo
Cytochrome P450 2A6 = target: T2, Cytochrome P450 2A6 (Homo sapiens, UniProt P11509); assay: Inhibition of CYP2A6 in human liver microsomes at 10 uM by LC-MS/MS analysis; type: ADME
T2 sequence (P11509 whole entry): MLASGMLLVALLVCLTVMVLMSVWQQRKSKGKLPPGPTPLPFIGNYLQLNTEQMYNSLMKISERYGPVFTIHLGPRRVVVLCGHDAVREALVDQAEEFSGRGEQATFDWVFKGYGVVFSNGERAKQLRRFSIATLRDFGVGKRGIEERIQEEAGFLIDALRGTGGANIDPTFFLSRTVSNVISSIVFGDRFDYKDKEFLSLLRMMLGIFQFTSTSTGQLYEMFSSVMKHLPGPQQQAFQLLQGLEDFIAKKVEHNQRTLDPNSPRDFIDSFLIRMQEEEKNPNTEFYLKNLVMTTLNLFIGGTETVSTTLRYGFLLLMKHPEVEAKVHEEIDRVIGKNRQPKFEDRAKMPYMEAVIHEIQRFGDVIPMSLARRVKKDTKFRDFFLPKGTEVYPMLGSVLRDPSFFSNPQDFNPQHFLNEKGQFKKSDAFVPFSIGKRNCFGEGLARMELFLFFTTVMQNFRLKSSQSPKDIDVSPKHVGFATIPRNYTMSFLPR

[13] = Volume of distribution at steady state in Lewis rat at 1 mg/kg, iv measured upto 24 hrs by LC-MS/MS analysis; type: ADME, organism-based; conditions: in vivo, read-out: Vdss
[14] = AUClast in BALB/c mouse at 10 mg/kg, po measured upto 24 hrs by LC-MS/MS analysis; type: ADME, organism-based; parameters: route oral, dose 10 mg/kg, time <=24; conditions: in vivo
[15] = AUClast in Lewis rat at 1 mg/kg, iv measured upto 24 hrs by LC-MS/MS analysis; type: ADME, organism-based; parameters: route intravenous, dose 1 mg/kg, time <=24; conditions: in vivo
[16] = Clearance in BALB/c mouse at 1 mg/kg, iv measured upto 24 hrs by LC-MS/MS analysis; type: ADME, organism-based; conditions: in vivo
[17] = Tmax in Lewis rat at 10 mg/kg, po measured upto 24 hrs by LC-MS/MS analysis; type: ADME, organism-based; conditions: in vivo
Cytochrome P450 2B6 = target: T3, Cytochrome P450 2B6 (Homo sapiens, UniProt P20813); assay: Inhibition of CYP2B6 in human liver microsomes at 10 uM by LC-MS/MS analysis; type: ADME
T3 sequence (P20813 whole entry): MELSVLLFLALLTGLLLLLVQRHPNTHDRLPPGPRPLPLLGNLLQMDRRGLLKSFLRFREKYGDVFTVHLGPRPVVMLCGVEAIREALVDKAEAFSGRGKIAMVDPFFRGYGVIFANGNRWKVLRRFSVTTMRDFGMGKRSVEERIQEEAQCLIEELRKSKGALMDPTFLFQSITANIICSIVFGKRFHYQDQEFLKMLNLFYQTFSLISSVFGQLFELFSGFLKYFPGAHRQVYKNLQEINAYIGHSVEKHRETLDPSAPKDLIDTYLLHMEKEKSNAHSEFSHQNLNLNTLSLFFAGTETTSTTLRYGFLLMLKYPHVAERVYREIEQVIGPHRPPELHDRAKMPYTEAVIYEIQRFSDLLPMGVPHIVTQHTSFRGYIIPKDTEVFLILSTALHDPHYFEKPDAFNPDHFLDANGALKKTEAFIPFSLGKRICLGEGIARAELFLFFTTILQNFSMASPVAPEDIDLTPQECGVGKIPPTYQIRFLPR

[18] = Clearance in Lewis rat at 1 mg/kg, iv measured upto 24 hrs by LC-MS/MS analysis; type: ADME, organism-based; conditions: in vivo
[19] = Cmax in BALB/c mouse at 10 mg/kg, po measured upto 24 hrs by LC-MS/MS analysis; type: ADME, organism-based; parameters: route oral, dose 10 mg/kg, time <=24; conditions: in vivo
Cytochrome P450 3A4 = Cytochrome P450 3A4 (Homo sapiens, UniProt P08684); assay: Inhibition of CYP3A4 in human liver microsomes at 10 uM by LC-MS/MS analysis; type: ADME
Cytochrome P450 3A4, sequence (P08684 whole entry): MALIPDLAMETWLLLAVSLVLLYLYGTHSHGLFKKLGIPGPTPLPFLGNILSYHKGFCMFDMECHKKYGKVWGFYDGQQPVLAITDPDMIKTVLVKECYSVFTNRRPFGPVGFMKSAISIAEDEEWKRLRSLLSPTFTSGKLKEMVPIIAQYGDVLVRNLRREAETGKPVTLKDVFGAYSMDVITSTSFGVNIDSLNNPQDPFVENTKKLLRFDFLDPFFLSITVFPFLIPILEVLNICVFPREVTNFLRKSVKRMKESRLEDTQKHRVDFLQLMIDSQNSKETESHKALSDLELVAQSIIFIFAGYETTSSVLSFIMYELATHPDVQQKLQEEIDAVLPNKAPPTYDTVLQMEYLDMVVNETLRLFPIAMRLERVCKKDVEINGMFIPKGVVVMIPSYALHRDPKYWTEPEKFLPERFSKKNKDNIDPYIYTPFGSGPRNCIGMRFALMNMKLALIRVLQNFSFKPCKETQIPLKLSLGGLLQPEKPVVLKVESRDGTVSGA

| Structure (SMILES) | inhibition (INH) (Cytochrome P450 2D6) | half-life [1] | half-life [2] | Stability [3] | inhibition (INH) (Cytochrome P450 1A2) | inhibition (INH) (Cytochrome P450 2C9) | AUC(0-t) at 24 h [4] | Tmax [5] | bioavailability [6] | Cmax [7] | half-life [8] | Stability [9] | fraction unbound [10] | Stability [11] | Cmax [12] | inhibition (INH) (Cytochrome P450 2A6) | Vd [13] | AUC(0-t) at 24 h [14] | AUC(0-t) at 24 h [15] | clearance [16] | further results |
| --- | --- | --- | --- | --- | --- | --- | --- | --- | --- | --- | --- | --- | --- | --- | --- | --- | --- | --- | --- | --- | --- |
| Cc1c(-c2ccc(NC(=O)c3c(F)cccc3Cl)cc2)cccc1-c1nn(C)c(=O)o1 | Not Active | 13 h | 5 h | Stable | Not Active | Not Active | 167 µM·h | 1 h | 60% | 5 µM | 6 h | Stable | 0.01 | Stable | 10 µM | Not Active | 1 L/kg | 44 µM·h | 28 µM·h | 8 mL/min/kg | Tmax [17]: 2 h; inhibition (INH) (Cytochrome P450 2B6): Not Active; clearance [18]: 1 mL/min/kg; Cmax [19]: 4.7 µM; inhibition (INH) (Cytochrome P450 3A4): Not Active |
| Cc1c(-c2ccc(NC(=O)c3c(F)cccc3F)cc2)cccc1-c1nn(C)c(=O)o1 | Not Active | > 15 h | 6.4 h | Stable | Not Active | Not Active | 353 µM·h | 1 h | 100% | 4 µM | 5.3 h | Stable | 0.01 | Stable | 20 µM | Not Active | 1 L/kg | 56 µM·h | 29 µM·h | 5.2 mL/min/kg | Tmax [17]: 8 h; inhibition (INH) (Cytochrome P450 2B6): Not Active; clearance [18]: 0.9 mL/min/kg; Cmax [19]: 4 µM; inhibition (INH) (Cytochrome P450 3A4): Not Active |
